Measurements taken from patent US10710978B2, “STK4 inhibitors for treatment of hematologic malignancies” (Dana-Farber Cancer Institute, Inc., priority 2015, dated 2020).
Read-outs that look alike come from different tables or passages of the source.

What was measured:
Assay in all cases: KiNativ assay
Format in all cases: binding
AKT2, AKT3 = details: H929 live cell
Procedure, shortened: (§1)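 Compounds were tested in duplicate at 10 μM in live H929 cells, and kinase engagement was profiled by KiNativ with mass spectrometry read-out to derive IC50.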

ARAF = ARAF (Homo sapiens (Human), UniProt P10398); details: H929 live cell
Procedure, shortened: as §1

CDK9 = CDK9 (Homo sapiens (Human), UniProt P50750); details: H929 live cell
Procedure, shortened: as §1

CK1d, CK1e = details: H929 live cell
Procedure, shortened: as §1

CK1g1 = CK1g1 (Homo sapiens (Human), UniProt Q9HCP0); details: H929 live cell
Procedure, shortened: as §1

DNAPK = DNAPK (Homo sapiens (Human), UniProt P78527); details: H929 live cell
Procedure: (§2) Biochemical IC50s of the compounds of the present disclosure against various kinases were measured in a KiNativ assay. Compounds were screened in duplicate at 10 μM in H929 live cell. IC50 was measured via Mass spectroscopy (MS).

GPRK5 = GPRK5 (Homo sapiens (Human), UniProt P34947); details: H929 live cell
Procedure, shortened: as §1

KHS2 = KHS2 (Homo sapiens (Human), UniProt Q8IVH8); details: H929 live cell
Procedure, shortened: as §1

MAP2K2 = MAP2K2 (Homo sapiens (Human), UniProt P36507); details: H929 live cell
Procedure, shortened: as §1

PDK1 = PDK1 (Homo sapiens (Human), UniProt O15530); details: H929 live cell
Procedure, shortened: as §1

QSK = QSK (Homo sapiens (Human), UniProt Q9Y2K2); details: H929 live cell
Procedure, shortened: as §1

[1] = system: ALK2, ALK4, ALK7, BMPR1B, TGFbR1; details: H929 live cell; for % inhibition: 10 μM, range class
Procedure, shortened: as §1

ATM = ATM (Homo sapiens (Human), UniProt Q13315); details: H929 live cell
Procedure, shortened: as §1

CDK6 = CDK6 (Homo sapiens (Human), UniProt Q00534); details: H929 live cell
Procedure: as §2

CaMK4 = CaMK4 (Homo sapiens (Human), UniProt Q16566); details: H929 live cell
Procedure, shortened: as §1

Erk5 = Erk5 (Homo sapiens (Human), UniProt Q13164); details: H929 live cell
Procedure, shortened: as §1

GAK = GAK (Homo sapiens (Human), UniProt O14976); details: H929 live cell
Procedure, shortened: as §1

GPRK6 = GPRK6 (Homo sapiens (Human), UniProt P43250); details: H929 live cell
Procedure, shortened: as §1

LATS2 = LATS2 (Homo sapiens (Human), UniProt Q9NRM7); details: H929 live cell
Procedure, shortened: as §1

LZK = LZK (Homo sapiens (Human), UniProt O43283); details: H929 live cell
Procedure, shortened: as §1

MAP3K15 = MAP3K15 (Homo sapiens (Human), UniProt Q6ZN16); details: H929 live cell
Procedure, shortened: as §1

MAP3K3 = MAP3K3 (Homo sapiens (Human), UniProt Q99759); details: H929 live cell
Procedure, shortened: as §1

MAST1, MAST2 = details: H929 live cell; for % inhibition: 10 μM, range class
Procedure, shortened: as §1

MELK = MELK (Homo sapiens (Human), UniProt Q14680); details: H929 live cell
Procedure, shortened: as §1

MER, TYRO3 = details: H929 live cell; for % inhibition: 10 μM, range class
Procedure, shortened: as §1

PAK2 = PAK2 (Homo sapiens (Human), UniProt Q13177); details: H929 live cell
Procedure, shortened: as §1

PCTAIRE1 = PCTAIRE1 (Homo sapiens (Human), UniProt Q00536); details: H929 live cell
Procedure, shortened: as §1

PCTAIRE1, PCTAIRE3 = details: H929 live cell; for % inhibition: 10 μM, range class
Procedure, shortened: as §1

PCTAIRE2, PCTAIRE3 = details: H929 live cell; for % inhibition: 10 μM, range class
Procedure, shortened: as §1

PIP4K2B = PIP4K2B (Homo sapiens (Human), UniProt P78356); details: H929 live cell
Procedure, shortened: as §1

PYK2 = PYK2 (Homo sapiens (Human), UniProt Q14289); details: H929 live cell
Procedure, shortened: as §1

TAK1 = TAK1 (Homo sapiens (Human), UniProt O43318); details: H929 live cell
Procedure, shortened: as §1

ZC3/MINK = ZC3/MINK (Homo sapiens (Human), UniProt Q8N4C8); details: H929 live cell
Procedure, shortened: as §1

[2] = range class, read-out: % inhibition

LZK, sequence (O43283 whole entry): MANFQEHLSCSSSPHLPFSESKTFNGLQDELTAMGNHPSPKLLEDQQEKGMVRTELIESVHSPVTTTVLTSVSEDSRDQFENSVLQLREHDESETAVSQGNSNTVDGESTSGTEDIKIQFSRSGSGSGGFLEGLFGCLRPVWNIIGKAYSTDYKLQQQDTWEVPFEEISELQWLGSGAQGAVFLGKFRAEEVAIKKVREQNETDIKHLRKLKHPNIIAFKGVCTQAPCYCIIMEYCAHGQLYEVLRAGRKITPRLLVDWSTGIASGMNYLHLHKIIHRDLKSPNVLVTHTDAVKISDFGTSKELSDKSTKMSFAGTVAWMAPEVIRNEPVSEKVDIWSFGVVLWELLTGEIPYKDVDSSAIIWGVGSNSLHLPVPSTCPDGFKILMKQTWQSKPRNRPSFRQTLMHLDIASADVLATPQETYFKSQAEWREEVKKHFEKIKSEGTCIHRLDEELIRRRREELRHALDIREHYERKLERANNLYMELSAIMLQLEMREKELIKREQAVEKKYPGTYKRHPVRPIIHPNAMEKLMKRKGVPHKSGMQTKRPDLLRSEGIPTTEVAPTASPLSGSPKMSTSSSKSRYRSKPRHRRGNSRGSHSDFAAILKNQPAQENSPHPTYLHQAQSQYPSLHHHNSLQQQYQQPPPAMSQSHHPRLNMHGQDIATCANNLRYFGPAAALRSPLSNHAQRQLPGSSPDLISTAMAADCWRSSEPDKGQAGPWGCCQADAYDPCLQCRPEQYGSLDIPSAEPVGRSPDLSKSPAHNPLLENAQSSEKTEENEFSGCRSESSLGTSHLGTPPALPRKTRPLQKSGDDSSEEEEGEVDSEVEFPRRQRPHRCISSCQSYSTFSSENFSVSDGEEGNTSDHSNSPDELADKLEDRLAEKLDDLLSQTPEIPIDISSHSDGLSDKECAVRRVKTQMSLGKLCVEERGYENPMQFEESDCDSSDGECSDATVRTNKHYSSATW
GAK, sequence (O14976 whole entry): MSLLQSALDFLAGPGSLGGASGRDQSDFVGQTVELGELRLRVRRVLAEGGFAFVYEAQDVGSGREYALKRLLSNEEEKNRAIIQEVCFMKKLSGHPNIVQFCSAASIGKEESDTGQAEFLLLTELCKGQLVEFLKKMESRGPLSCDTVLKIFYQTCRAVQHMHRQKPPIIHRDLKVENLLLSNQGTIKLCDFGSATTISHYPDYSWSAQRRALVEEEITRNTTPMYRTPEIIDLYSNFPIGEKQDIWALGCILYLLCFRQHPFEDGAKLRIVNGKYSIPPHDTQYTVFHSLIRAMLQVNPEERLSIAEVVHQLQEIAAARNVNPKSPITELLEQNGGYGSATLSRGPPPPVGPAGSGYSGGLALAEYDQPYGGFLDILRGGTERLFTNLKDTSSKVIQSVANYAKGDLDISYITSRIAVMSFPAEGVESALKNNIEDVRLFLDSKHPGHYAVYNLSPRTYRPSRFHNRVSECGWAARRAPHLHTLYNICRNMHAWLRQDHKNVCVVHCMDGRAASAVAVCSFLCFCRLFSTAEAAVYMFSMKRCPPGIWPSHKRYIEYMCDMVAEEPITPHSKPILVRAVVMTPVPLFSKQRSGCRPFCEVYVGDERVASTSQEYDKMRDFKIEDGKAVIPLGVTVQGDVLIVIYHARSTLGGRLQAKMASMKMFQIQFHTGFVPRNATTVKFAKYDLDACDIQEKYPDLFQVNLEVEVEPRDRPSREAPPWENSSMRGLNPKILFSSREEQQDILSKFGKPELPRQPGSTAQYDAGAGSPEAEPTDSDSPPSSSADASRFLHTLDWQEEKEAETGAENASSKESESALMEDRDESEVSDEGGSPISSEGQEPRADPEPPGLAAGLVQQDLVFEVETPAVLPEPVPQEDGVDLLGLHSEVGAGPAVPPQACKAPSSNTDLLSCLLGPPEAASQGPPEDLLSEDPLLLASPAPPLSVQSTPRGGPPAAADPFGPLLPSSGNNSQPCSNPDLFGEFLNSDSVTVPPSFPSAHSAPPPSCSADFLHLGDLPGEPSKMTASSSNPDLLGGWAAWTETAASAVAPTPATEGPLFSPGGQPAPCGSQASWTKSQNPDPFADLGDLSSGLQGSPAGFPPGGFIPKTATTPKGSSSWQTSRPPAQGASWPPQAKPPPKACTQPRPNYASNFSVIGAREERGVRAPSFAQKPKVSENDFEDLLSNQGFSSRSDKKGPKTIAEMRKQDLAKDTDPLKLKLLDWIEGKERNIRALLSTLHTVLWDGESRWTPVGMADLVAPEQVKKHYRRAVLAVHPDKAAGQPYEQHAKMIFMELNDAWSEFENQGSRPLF
GPRK6, sequence (P43250 whole entry): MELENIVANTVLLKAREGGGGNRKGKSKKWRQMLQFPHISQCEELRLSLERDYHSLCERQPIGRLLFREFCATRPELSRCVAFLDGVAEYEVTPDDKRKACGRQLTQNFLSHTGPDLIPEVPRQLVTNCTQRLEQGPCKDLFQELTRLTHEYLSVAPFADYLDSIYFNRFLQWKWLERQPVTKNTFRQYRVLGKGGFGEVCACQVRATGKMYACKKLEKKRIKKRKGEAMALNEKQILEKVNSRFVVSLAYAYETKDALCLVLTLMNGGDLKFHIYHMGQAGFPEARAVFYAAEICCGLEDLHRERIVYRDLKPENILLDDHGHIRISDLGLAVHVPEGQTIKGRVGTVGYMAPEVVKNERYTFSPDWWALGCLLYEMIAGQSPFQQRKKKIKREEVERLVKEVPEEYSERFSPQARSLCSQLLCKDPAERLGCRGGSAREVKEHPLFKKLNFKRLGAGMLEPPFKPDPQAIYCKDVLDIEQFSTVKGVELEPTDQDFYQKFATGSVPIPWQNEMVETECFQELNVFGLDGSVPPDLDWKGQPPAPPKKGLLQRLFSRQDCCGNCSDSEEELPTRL
TAK1, sequence (O43318 whole entry): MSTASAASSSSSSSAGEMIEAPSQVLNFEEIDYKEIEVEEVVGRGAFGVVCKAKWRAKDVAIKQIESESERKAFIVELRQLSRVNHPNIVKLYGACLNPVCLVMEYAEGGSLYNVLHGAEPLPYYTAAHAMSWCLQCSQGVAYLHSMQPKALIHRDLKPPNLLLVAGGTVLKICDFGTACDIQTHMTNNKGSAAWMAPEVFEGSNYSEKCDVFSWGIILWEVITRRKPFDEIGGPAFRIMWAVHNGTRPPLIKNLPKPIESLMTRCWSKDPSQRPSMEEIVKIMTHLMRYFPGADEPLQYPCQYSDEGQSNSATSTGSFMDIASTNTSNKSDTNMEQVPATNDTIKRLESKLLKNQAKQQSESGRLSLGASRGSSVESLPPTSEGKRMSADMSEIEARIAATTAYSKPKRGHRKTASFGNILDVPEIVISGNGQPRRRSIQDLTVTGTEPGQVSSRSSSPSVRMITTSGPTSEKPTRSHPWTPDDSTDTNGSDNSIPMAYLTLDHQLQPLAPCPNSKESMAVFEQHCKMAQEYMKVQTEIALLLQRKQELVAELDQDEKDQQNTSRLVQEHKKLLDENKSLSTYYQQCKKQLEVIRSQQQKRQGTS
ZC3/MINK, sequence (Q8N4C8 whole entry): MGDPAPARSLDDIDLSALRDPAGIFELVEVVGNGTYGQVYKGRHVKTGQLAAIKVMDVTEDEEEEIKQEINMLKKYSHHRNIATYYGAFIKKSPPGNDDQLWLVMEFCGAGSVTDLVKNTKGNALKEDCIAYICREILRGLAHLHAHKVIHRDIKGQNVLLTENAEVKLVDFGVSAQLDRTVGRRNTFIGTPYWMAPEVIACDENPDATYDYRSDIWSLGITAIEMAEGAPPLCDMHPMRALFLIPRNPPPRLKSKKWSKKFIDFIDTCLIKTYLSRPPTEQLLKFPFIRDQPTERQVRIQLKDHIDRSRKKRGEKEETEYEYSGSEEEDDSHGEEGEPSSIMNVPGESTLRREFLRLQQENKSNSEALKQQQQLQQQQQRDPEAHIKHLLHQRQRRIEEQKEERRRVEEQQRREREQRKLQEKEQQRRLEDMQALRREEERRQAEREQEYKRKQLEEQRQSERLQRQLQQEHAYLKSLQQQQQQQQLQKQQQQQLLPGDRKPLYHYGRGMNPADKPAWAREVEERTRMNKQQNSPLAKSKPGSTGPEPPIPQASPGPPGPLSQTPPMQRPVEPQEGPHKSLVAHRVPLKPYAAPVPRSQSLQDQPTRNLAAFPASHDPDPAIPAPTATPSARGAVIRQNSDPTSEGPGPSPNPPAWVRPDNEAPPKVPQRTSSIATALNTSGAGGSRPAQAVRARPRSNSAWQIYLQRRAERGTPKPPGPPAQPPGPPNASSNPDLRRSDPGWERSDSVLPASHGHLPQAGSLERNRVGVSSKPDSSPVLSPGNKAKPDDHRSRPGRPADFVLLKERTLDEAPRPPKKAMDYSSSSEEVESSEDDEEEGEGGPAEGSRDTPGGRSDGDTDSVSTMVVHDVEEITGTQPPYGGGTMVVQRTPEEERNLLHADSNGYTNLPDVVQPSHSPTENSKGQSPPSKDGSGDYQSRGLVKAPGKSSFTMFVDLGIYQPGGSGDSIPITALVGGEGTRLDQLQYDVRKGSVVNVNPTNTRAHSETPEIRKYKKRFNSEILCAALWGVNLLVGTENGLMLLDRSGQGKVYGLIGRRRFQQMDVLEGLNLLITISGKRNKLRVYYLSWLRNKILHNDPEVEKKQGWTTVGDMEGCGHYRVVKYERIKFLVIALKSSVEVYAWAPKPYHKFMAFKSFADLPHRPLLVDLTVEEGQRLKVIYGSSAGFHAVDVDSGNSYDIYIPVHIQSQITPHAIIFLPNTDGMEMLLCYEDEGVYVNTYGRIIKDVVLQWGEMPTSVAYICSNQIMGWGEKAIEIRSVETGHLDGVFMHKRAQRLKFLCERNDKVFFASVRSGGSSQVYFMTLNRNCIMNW

Compound: Nc1ncc(-c2cccc([N+](=O)[O-])c2F)cc1-c1ccc2c(c1)CCNC2=O [Compound I-9, 6-(2-amino-5-(2-fluoro-3-nitrophenyl)pyridin-3-yl)-3,4-dihydroisoquinolin-1(2H)-one]
- % inhibition (range) (AKT2, AKT3; 10 μM): 0.0%
- inhibition (10 μM) (AKT2, AKT3): −1.3%
- inhibition at 10 µM (ARAF; read-out: % inhibition (range)): 0%
- inhibition at 10 µM (ARAF; read-out: inhibition (10 μM)): 9.5%
- inhibition at 10 µM (CDK9; read-out: % inhibition (range)): 50 to 75%
- inhibition at 10 µM (CDK9; read-out: inhibition (10 μM)): 65.8%
- % inhibition (range) (CK1d, CK1e; 10 μM): >90%
- inhibition (10 μM) (CK1d, CK1e): >95%
- inhibition at 10 µM (CK1g1; read-out: % inhibition (range)): 75 to 90%
- inhibition at 10 µM (CK1g1; read-out: inhibition (10 μM)): > 85%
- % inhibition (range) (DNAPK; 10 μM): >90%
- inhibition (10 μM) (DNAPK): 94.0%
- inhibition at 10 µM (DNAPK; read-out: % inhibition (range)): 75 to 90%
- inhibition at 10 µM (DNAPK; read-out: inhibition (10 μM)): 79.4%
- inhibition at 10 µM (GPRK5; read-out: % inhibition (range)): 0%
- inhibition at 10 µM (GPRK5; read-out: inhibition (10 μM)): 19.6%
- inhibition at 10 µM (KHS2; read-out: % inhibition (range)): 50 to 75%
- inhibition at 10 µM (KHS2; read-out: inhibition (10 μM)): 69.5%
- inhibition at 10 µM (MAP2K2; read-out: % inhibition (range)): 0%
- inhibition at 10 µM (MAP2K2; read-out: inhibition (10 μM)): -8.7%
- inhibition at 10 µM (PDK1; read-out: % inhibition (range)): 0%
- inhibition at 10 µM (PDK1; read-out: inhibition (10 μM)): 28.1%
- inhibition at 10 µM (QSK; read-out: % inhibition (range)): 50 to 75%
- inhibition at 10 µM (QSK; read-out: inhibition (10 μM)): 72.8%

Compound: COc1cc(NS(=O)(=O)C2CC2)ccc1-c1cnc(N)c(-c2ccc3c(c2)CCNC3=O)c1 [Compound I-50, N-(4-(6-amino-5-(1-oxo-1,2,3,4-tetrahydroisoquinolin-6-yl)pyridin-3-yl)-3-methoxyphenyl) cyclopropanesulfonamide]
- % inhibition [1]: 75-90%
- inhibition (10 μM) [1]: 84.0%
- inhibition at 10 µM (ATM; [2]): 0%
- inhibition at 10 µM (ATM; read-out: inhibition (10 μM)): 34.6%
- inhibition at 10 µM (CDK6; [2]): 0%
- inhibition at 10 µM (CDK6; read-out: inhibition (10 μM)): 15%
- inhibition at 10 µM (CaMK4; [2]): 0%
- inhibition at 10 µM (CaMK4; read-out: inhibition (10 μM)): -17.9%
- inhibition at 10 µM (DNAPK; [2]): 0%
- inhibition at 10 µM (Erk5; [2]): 0%
- inhibition at 10 µM (Erk5; read-out: inhibition (10 μM)): -2.8%
- inhibition at 10 µM (GAK; [2]): 50 to 75%
- inhibition at 10 µM (GAK; read-out: inhibition (10 μM)): 51.1%
- inhibition at 10 µM (GPRK6; [2]): 0%
- inhibition at 10 µM (GPRK6; read-out: inhibition (10 μM)): -40.5%
- inhibition at 10 µM (LATS2; [2]): 0%
- inhibition at 10 µM (LATS2; read-out: inhibition (10 μM)): 1.1%
- inhibition at 10 µM (LZK; [2]): 0%
- inhibition at 10 µM (LZK; read-out: inhibition (10 μM)): 1.3%
- inhibition at 10 µM (MAP3K15; [2]): 35 to 40%
- inhibition at 10 µM (MAP3K15; read-out: inhibition (10 μM)): 46.7%
- inhibition at 10 µM (MAP3K3; [2]): 0%
- inhibition at 10 µM (MAP3K3; read-out: inhibition (10 μM)): -5.7%
- % inhibition (MAST1, MAST2): 0.0%
- inhibition (10 μM) (MAST1, MAST2): 2.6%
- inhibition at 10 µM (MELK; [2]): 35 to 40%
- inhibition at 10 µM (MELK; read-out: inhibition (10 μM)): 45.9%
- % inhibition (MER, TYRO3): 0.0%
- inhibition (10 μM) (MER, TYRO3): −2.0%
- inhibition at 10 µM (PAK2; [2]): 0%
- inhibition at 10 µM (PAK2; read-out: inhibition (10 μM)): 20.2%
- inhibition at 10 µM (PCTAIRE1; [2]): 0%
- inhibition at 10 µM (PCTAIRE1; read-out: inhibition (10 μM)): -15.6%
- % inhibition (PCTAIRE1, PCTAIRE3): 0.0%
- inhibition (10 μM) (PCTAIRE1, PCTAIRE3): −3.5%
- % inhibition (PCTAIRE2, PCTAIRE3): 0.0%
- inhibition (10 μM) (PCTAIRE2, PCTAIRE3): −8.9%
- inhibition at 10 µM (PIP4K2B; [2]): 0%
- inhibition at 10 µM (PIP4K2B; read-out: inhibition (10 μM)): -31.5%
- inhibition at 10 µM (PYK2; [2]): 0%
- inhibition at 10 µM (PYK2; read-out: inhibition (10 μM)): 31.5%
- inhibition at 10 µM (TAK1; [2]): 35 to 40%
- inhibition at 10 µM (TAK1; read-out: inhibition (10 μM)): 39.1%
- inhibition at 10 µM (ZC3/MINK; [2]): 50 to 75%
- inhibition at 10 µM (ZC3/MINK; read-out: inhibition (10 μM)): 57.6%

Compound: Nc1ncc(-c2ccc(NS(=O)(=O)C3CC3)cc2OC2CCCCC2)cc1-c1ccc2c(c1)CCNC2=O [Compound I-65, N-(4-(6-amino-5-(1-oxo-1,2,3,4-tetrahydroisoquinolin-6-yl)pyridin-3-yl)-3-(cyclohexyloxy)phenyl) cyclopropanesulfonamide]
- % inhibition [1]: >90%
- inhibition (10 μM) [1]: 91.0%
- inhibition at 10 µM (ATM; [2]): 35 to 40%
- inhibition at 10 µM (ATM; read-out: inhibition (10 μM)): 48%
- inhibition at 10 µM (CDK6; [2]): 0%
- inhibition at 10 µM (CDK6; read-out: inhibition (10 μM)): 0.5%
- inhibition at 10 µM (CaMK4; [2]): 0%
- inhibition at 10 µM (CaMK4; read-out: inhibition (10 μM)): -21%
- inhibition at 10 µM (Erk5; [2]): 0%
- inhibition at 10 µM (Erk5; read-out: inhibition (10 μM)): -6.5%
- inhibition at 10 µM (GAK; [2]): 0%
- inhibition at 10 µM (GAK; read-out: inhibition (10 μM)): 7.7%
- inhibition at 10 µM (GPRK6; [2]): 0%
- inhibition at 10 µM (GPRK6; read-out: inhibition (10 μM)): 23.1%
- inhibition at 10 µM (LATS2; [2]): 0%
- inhibition at 10 µM (LATS2; read-out: inhibition (10 μM)): -0.2%
- inhibition at 10 µM (LZK; [2]): 35 to 40%
- inhibition at 10 µM (LZK; read-out: inhibition (10 μM)): 43.1%
- inhibition at 10 µM (MAP3K15; [2]): 0%
- inhibition at 10 µM (MAP3K15; read-out: inhibition (10 μM)): 29.7%
- inhibition at 10 µM (MAP3K3; [2]): 0%
- inhibition at 10 µM (MAP3K3; read-out: inhibition (10 μM)): -28.3%
- % inhibition (MAST1, MAST2): 0.0%
- inhibition (10 μM) (MAST1, MAST2): 3.0%
- inhibition at 10 µM (MELK; [2]): 50 to 75%
- inhibition at 10 µM (MELK; read-out: inhibition (10 μM)): 56.5%
- % inhibition (MER, TYRO3): 0.0%
- inhibition (10 μM) (MER, TYRO3): 4.6%
- inhibition at 10 µM (PAK2; [2]): 0%
- inhibition at 10 µM (PAK2; read-out: inhibition (10 μM)): 1.7%
- inhibition at 10 µM (PCTAIRE1; [2]): 0%
- inhibition at 10 µM (PCTAIRE1; read-out: inhibition (10 μM)): 9%
- % inhibition (PCTAIRE1, PCTAIRE3): 0.0%
- inhibition (10 μM) (PCTAIRE1, PCTAIRE3): 2.3%
- % inhibition (PCTAIRE2, PCTAIRE3): 0.0%
- inhibition (10 μM) (PCTAIRE2, PCTAIRE3): 20.3%
- inhibition at 10 µM (PIP4K2B; [2]): 0%
- inhibition at 10 µM (PIP4K2B; read-out: inhibition (10 μM)): -8.9%
- inhibition at 10 µM (PYK2; [2]): 35 to 40%
- inhibition at 10 µM (PYK2; read-out: inhibition (10 μM)): 38.7%
- inhibition at 10 µM (TAK1; [2]): 35 to 40%
- inhibition at 10 µM (TAK1; read-out: inhibition (10 μM)): 35%
- inhibition at 10 µM (ZC3/MINK; [2]): 50 to 75%
- inhibition at 10 µM (ZC3/MINK; read-out: inhibition (10 μM)): 66.6%
